Patent US8975015B2, “Antimicrobial compounds” (priority 2009, dated 2015)
In brackets after ≈: the same amount, converted by molar mass. Like-named read-outs stand apart in the source and are kept apart here.

Legend:
[1] = test system: Mycobacterium tuberculosis (replicating TB); experiment: microbe, parasite or virus in culture; format: cell-based; conditions: Mycobacterium tuberculosis, replicating TB, read-out: MABA MIC
[2] = test system: non-replicating TB; experiment: microbe, parasite or virus in culture; format: cell-based, Mycobacterium tuberculosis; conditions: Mycobacterium tuberculosis, read-out: LORA MIC
[3] = test system: M. smegmatis; experiment: MIC against M. smegmatis; format: cell-based; conditions: Mycolicibacterium smegmatis
[4] = mouse, microsomes
[5] = format: in vitro ADME
Experimental: Compound P1 was also tested for stability in simulated intestinal fluid.

[6] = human, microsomes
[7] = format: in vitro ADME; conditions: simulated gi fluid
[8] = test system: cultured kidney cells from the African Green monkey; experiment: cells; format: cell-based; conditions: Chlorocebus sabaeus

O=C1C=Cc2nocc2/C1=C1/Nc2cc(Cl)ccc2C1=O [Example 2, 4-(6-chloro-3-oxoindolin-2-ylidene)benzo[c]isoxazol-5(4H)-one]
MIC ([1]; 8-0.03 μM test concentration): 1.9 µM (≈ 0.568 µg/mL)
MIC ([1]; 32-0.2 μM test concentration): 1.92 µM (≈ 0.573 µg/mL)

O=C1C=Cc2nocc2/C1=C1/Nc2ccc(Cl)cc2C1=O [Example 3, 4-(5-chloro-3-oxoindolin-2-ylidene)benzo[c]isoxazol-5(4H)-one]
MIC ([1]; 8-0.03 μM test concentration): 0.82 µM (≈ 0.245 µg/mL)
MIC ([1]; 32-0.2 μM test concentration): 0.93 µM (≈ 0.278 µg/mL)
MIC ([2]; non-replicating TB): 0.83 µM (≈ 0.248 µg/mL)

O=C1C=Cc2nocc2/C1=C1/Nc2ccccc2C1=O [Example P1, 4-(3-oxoindolin-2-ylidene)benzo[c]isoxazol-5(4H)-one]
MIC [3]: 4.05 µg/mL (≈ 15.3 µM)
half-life [4]: about 3 or 4 minutes
% P1 ([5]; 0 min): 100%
% P1 ([5]; 5 min): 99.9%
% P1 ([5]; 25 min): 95.4%
% P1 ([5]; 45 min): 97.7%
% P1 ([5]; 65 min): 92.1%
% P1 ([5]; 85 min): 86.2%
% P1 ([5]; 125 min): 86.8%
% P1 ([5]; 145 min): 83.5%
half-life [6]: about 7 or 8 minutes
MIC [1]: 0.49 µM (≈ 0.129 µg/mL)
% P1 remaining ([7]; 0 h): 100%
% P1 remaining ([7]; 5 min): 99.2%
% P1 remaining ([7]; 25 min): 99.6%
% P1 remaining ([7]; 0.75 h): 101.3%
% P1 remaining ([7]; 65 min): 99.6%
% P1 remaining ([7]; 80 min): 97.0%
% P1 remaining ([7]; 100 min): 101.6%
% P1 remaining ([7]; 2 h): 102.1%
% P1 remaining ([7]; 140 min): 100.2%
IC50 ([8]; African Green monkey kidney cells): > 50 µg/mL
IC50 ([8]; Table 7, reaction products of T4MO isoform I100V with feedstock): 20.8 µg/mL (≈ 78.8 µM)
MIC ([2]; non-replicating TB): 0.48 µM (≈ 0.127 µg/mL)

NNC(=O)c1ccncc1 [Isoniazid, reference compound]
MIC [1]: 0.56 µM (≈ 0.0768 µg/mL)
MIC [2]: > 128 µM

CO[C@H]1/C=C/O[C@@]2(C)Oc3c(C)c(O)c4c(O)c(c(/C=N/N5CCN(C)CC5)c(O)c4c3C2=O)NC(=O)/C(C)=C\C=C\[C@H](C)[C@H](O)[C@@H](C)[C@@H](O)[C@@H](C)[C@H](OC(C)=O)[C@@H]1C [Rifampin, reference compound]
MIC [1]: 0.06 µM (≈ 0.0494 µg/mL)
MIC [2]: 1.34 µM (≈ 1.1 µg/mL)
